Test results taken from US11530244B2, “Cyclic polypeptides for PCSK9 inhibition” (priority 2018, dated 2022).
Starred links: 1 amine or outer side, 2 acyl side, 3 side chain; linkers in the order of their positions; H or OH if unused. Positions of bridges follow the written chain, without caps; N, C: chain ends. Non-standard residues stand in square brackets, D forms with d. Residues, ends and D or L forms follow the SMILES beside them. ξ: configuration not given here. X24 = O=C(CCCCSc1c(F)c(F)c(SCCN[*:1])c(F)c1F)[*:2]; Trp(5-F) = N[C@@H](Cc1c[nH]c2ccc(F)cc12)C(=O)O; X10 = O=C(CCSCc1ccc2ccc(CSCCN[*:1])cc2c1)[*:2]; dPro(cis-4-NH2) = N[C@H]1CN[C@@H](C(=O)O)C1; Dip = N[C@H](C(=O)O)C(c1ccccc1)c1ccccc1; Lys(N3) = [N-]=[N+]=NCCCC[C@H](N)C(=O)O; X4 = O=C(CCSCc1cccc(CSCCN[*:1])c1)[*:2]; AEF = NCCOc1ccc(C[C@H](N)C(=O)O)cc1; Glutaryl = O=C(CCCC(=O)[*:2])[*:1]; X39 = c1cc(CCSCN[*:2])cc(C[*:1])c1; X34 = O=C(CCC1CCN([*:1])CC1)[*:2]; X41 = O=C(Cc1ccc(N[*:1])cc1)[*:2]; X6 = O=C(Cc1ccc(CN[*:2])cc1)[*:1]; X7 = O=C(Cc1ccc(CN[*:1])cc1)[*:2]; Aad = N[C@@H](CCCC(=O)O)C(=O)O; αMeP = C[C@@]1(C(=O)O)CCCN1; Dab = NCC[C@H](N)C(=O)O; ξD = NC(CC(=O)O)C(=O)O; X2 = O=C(C[*:2])[*:1]; Mpa = O=C(O)CCS

Experiments:
PCSK9 = PCSK9 (Homo sapiens (Human), UniProt Q8NBP7); assay: PCSK9 Alexa FRET Standard assay (displacement of AlexaFluor647 tagged cyclic peptide Reagent A); type: binding; conditions: PCSK9 Alexa FRET Standard assay, 0.5 nM PCSK9, 20 nM AF cyclic peptide Reagent A; read-out: IC50
Outline: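 TR-FRET displacement: 0.5 nM biotinylated PCSK9 with 1.25 nM Strep-Eu and 20 nM AlexaFluor-tagged cyclic peptide (final) in 50 mM HEPES pH 7.4, 0.15 M NaCl, 5 mM CaCl2, 0.01% BSA, 0.01% P20, ≥2 h at room temperature. IC50 from sigmoidal fit, converted to Ki via peptide KD; falling Eu counts flagged false positives.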

[1] = biological target: human PCSK9 / human LDLR EGFa domain interaction (Homo sapiens (Human), UniProt Q8NBP7); assay: TR-FRET assay of inhibition of the PCSK9-LDLR protein-protein interaction; type: binding; conditions: TR-FRET, 20 nM human PCSK9, 20 nM human LDLR EGFa domain, 2 hours room temperature; read-out: IC50
Outline: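 Avitag-biotinylated human PCSK9 (20 nM) and his-tagged human LDLR EGFa domain (20 nM) were incubated with 5 nM Ulight streptavidin and 5 nM europium anti-6×His for 2 h at room temperature. Buffer: 50 mM HEPES, 150 mM NaCl, 5 mM CaCl2, 0.01% BSA, 0.01% P20. IC50 from 4-parameter fit of dose-response.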

Chain of PCSK9 (Q8NBP7 153-692): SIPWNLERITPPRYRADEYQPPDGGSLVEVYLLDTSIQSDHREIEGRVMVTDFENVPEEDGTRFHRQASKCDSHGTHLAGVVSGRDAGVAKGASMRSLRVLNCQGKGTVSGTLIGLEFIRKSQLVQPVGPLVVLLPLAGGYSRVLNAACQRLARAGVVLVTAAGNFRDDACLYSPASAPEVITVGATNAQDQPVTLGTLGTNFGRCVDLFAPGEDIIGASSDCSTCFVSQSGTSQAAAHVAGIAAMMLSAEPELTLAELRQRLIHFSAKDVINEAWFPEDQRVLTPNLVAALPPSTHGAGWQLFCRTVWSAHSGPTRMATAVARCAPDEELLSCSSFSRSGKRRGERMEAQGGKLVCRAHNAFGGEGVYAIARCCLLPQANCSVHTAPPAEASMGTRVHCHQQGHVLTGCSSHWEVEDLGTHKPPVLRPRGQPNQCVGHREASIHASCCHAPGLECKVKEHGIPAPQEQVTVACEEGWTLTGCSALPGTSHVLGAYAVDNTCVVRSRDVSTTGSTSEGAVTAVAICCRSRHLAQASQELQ
Chain of human PCSK9 / human LDLR EGFa domain interaction (Q8NBP7 153-692): as above
Chain of human PCSK9 / human LDLR EGFa domain interaction (Q8NBP7 31-152 partner): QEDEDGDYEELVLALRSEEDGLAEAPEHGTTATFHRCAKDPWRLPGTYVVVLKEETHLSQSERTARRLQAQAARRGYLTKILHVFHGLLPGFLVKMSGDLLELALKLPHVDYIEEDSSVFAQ

Row | IC50 (PCSK9) [nM] | IC50 [1] [nM] | Compound
1 | 1000 to 12100 | 100 to 1000 | COc1ccc(C[C@@H]2NC(=O)[C@H](Cc3cnc[nH]3)NC(=O)[C@H](CC(=O)O)NC(=O)[C@H](Cc3c[nH]c4ccc(F)cc34)NC(=O)[C@H](Cc3c[nH]c4ccc(F)cc34)NC(=O)[C@@H](C)NC(=O)Cc3ccc(cc3)CNC(=O)C[C@@H](C(N)=O)NC(=O)[C@]3(C)CCCN3C2=O)cc1 [Compound 403] ([X7][dA][Trp(5-F)][Trp(5-F)]DHY(Me)[αMeP]D-NH2; lactam N-9)
2 | 1000 to 12100 | 100 to 1000 | COc1ccc(C[C@@H]2NC(=O)[C@H](Cc3cnc[nH]3)NC(=O)[C@H](CC(=O)O)NC(=O)[C@H](Cc3c[nH]c4ccc(F)cc34)NC(=O)[C@H](Cc3c[nH]c4ccc(F)cc34)NC(=O)[C@H](C)NC(=O)CCC3CCN(CC3)C(=O)[C@H](CC(N)=O)NC(=O)[C@]3(C)CCCN3C2=O)cc1 [Compound 404] (cyclo(A[Trp(5-F)][Trp(5-F)]DHY(Me)[αMeP]N[X34]))
3 | 21000 to 50000 | 21000 to 50000 | COc1ccc(C[C@@H]2NC(=O)[C@H](CCCC(=O)O)NC(=O)[C@H]3C[C@@H](N)CN3C(=O)[C@H](Cc3c[nH]c4ccc(F)cc34)NC(=O)[C@H](Cc3c[nH]c4ccc(F)cc34)NC(=O)[C@@H](C)NC(=O)[C@H](CCCCN=[N+]=[N-])NC(=O)CCSCc3cccc(c3)CCSCNC(=O)[C@]3(C)CCCN3C2=O)cc1 [Compound 408] ([Mpa][Lys(N3)][dA][Trp(5-F)][Trp(5-F)][dPro(cis-4-NH2)][Aad]Y(Me)[αMeP]; linker 1-C via X39)

Further lines, the molecule ahead of its results:

Row | Compound | IC50 (PCSK9) [nM] | IC50 [1] [nM]
4 | COc1ccc(C[C@@H]2NC(=O)[C@H](Cc3cnc[nH]3)NC(=O)[C@H](CC(=O)O)NC(=O)[C@H](Cc3c[nH]c4ccc(F)cc34)NC(=O)[C@H](Cc3c[nH]c4ccc(F)cc34)NC(=O)[C@@H](C)NC(=O)[C@H](NC(C)=O)CCCCNC(=O)Cc3ccc(cc3)CNC(=O)C[C@@H](C(N)=O)NC(=O)[C@]3(C)CCCN3C2=O)cc1 [Compound 397] (Ac-[dK][dA][Trp(5-F)][Trp(5-F)]DHY(Me)[αMeP]D-NH2; linker 1-9 via X6) | 1000 to 12100 | 1000 to 12100
5 | COc1ccc(C[C@@H]2NC(=O)[C@H](Cc3cnc[nH]3)NC(=O)[C@H](CC(=O)O)NC(=O)[C@H](Cc3c[nH]c4ccc(F)cc34)NC(=O)[C@H](Cc3c[nH]c4ccc(F)cc34)NC(=O)[C@@H](C)NC(=O)CCCC(=O)NCCOc3ccc(cc3)C[C@@H](C(N)=O)NC(=O)[C@]3(C)CCCN3C2=O)cc1 [Compound 400] ([dA][Trp(5-F)][Trp(5-F)]DHY(Me)[αMeP][AEF]-NH2; linker N-8 via Glutaryl) | 1000 to 12100 | 100 to 1000
6 | COc1ccc(C[C@@H]2NC(=O)[C@H](Cc3cnc[nH]3)NC(=O)[C@H](CC(=O)O)NC(=O)[C@H](Cc3c[nH]c4ccc(F)cc34)NC(=O)[C@H](Cc3c[nH]c4ccc(F)cc34)NC(=O)[C@@H](C)NC(=O)Cc3ccc(cc3)NC(=O)CC(C(=O)O)NC(=O)[C@]3(C)CCCN3C2=O)cc1 (some centres unmarked) [Compound 402] ([X41][dA][Trp(5-F)][Trp(5-F)]DHY(Me)[αMeP][ξD]-OH; lactam N-9) | 1000 to 12100 | 1000 to 12100
7 | COc1ccc(C[C@@H]2NC(=O)[C@H](Cc3cnc[nH]3)NC(=O)[C@H](CC(=O)O)NC(=O)[C@H](Cc3c[nH]c4ccc(F)cc34)NC(=O)[C@H](Cc3c[nH]c4ccc(F)cc34)NC(=O)[C@@H](C)NC(=O)[C@H](CCCCN)NC(=O)CCSCc3ccc4ccc(cc4c3)CSCCNC(=O)[C@]3(C)CCCN3C2=O)cc1 [Compound 405] (cyclo(DHY(Me)[αMeP][X10]K[dA][Trp(5-F)][Trp(5-F)])) | 100 to 1000 | 0.1 to 100
8 | C[C@H]1NC(=O)[C@H](CCCCN)NC(=O)CCSCc2cccc(c2)CSCCNC(=O)[C@]2(C)CCCN2C(=O)[C@H](C(c2ccccc2)c2ccccc2)NC(=O)[C@H](Cc2cnc[nH]2)NC(=O)[C@H](CC(=O)O)NC(=O)[C@H](Cc2c[nH]c3ccc(F)cc23)NC(=O)[C@H](Cc2c[nH]c3ccc(F)cc23)NC1=O [Compound 406] (cyclo(DH[Dip][αMeP][X4]K[dA][Trp(5-F)][Trp(5-F)])) | 100 to 1000 | 0.1 to 100
9 | COc1ccc(C[C@@H]2NC(=O)[C@H](Cc3cnc[nH]3)NC(=O)[C@H](CC(=O)O)NC(=O)[C@H](Cc3c[nH]c4ccc(F)cc34)NC(=O)[C@H](Cc3c[nH]c4ccc(F)cc34)NC(=O)[C@@H](C)NC(=O)[C@H](CCCCN)NC(=O)[C@@H](NC(C)=O)CCNC(=O)COc3ccc(cc3)C[C@@H](C(N)=O)NC(=O)[C@]3(C)CCCN3C2=O)cc1 [Compound 409] (Ac-[Dab]K[dA][Trp(5-F)][Trp(5-F)]DHY(Me)[αMeP]Y-NH2; linker 1-10 via X2) | 100 to 1000 | 0.1 to 100
10 | COc1ccc(C[C@@H]2NC(=O)[C@H](Cc3cnc[nH]3)NC(=O)[C@H](CC(=O)O)NC(=O)[C@H](Cc3c[nH]c4ccc(F)cc34)NC(=O)[C@H](Cc3c[nH]c4ccc(F)cc34)NC(=O)[C@@H](C)NC(=O)CCCCSc3c(F)c(F)c(c(F)c3F)SCCNC(=O)[C@]3(C)CCCN3C2=O)cc1 [Compound 483] (cyclo(DHY(Me)[αMeP][X24][dA][Trp(5-F)][Trp(5-F)])) | 0.11 to 100 | 0.1 to 100
